Test results as given in ChEMBL document CHEMBL1151745, “Identification of potent, selective, and metabolically stable peptide antagonists to the calcitonin gene-related peptide (CGRP) receptor” (J Med Chem, 2008).
The source made the active and inactive calls. The rule behind the calls is not given here. Where a SMILES comes first, the peptide text is derived from it. [ ]: non-standard residue; d: D form. Tpi = O=C(O)[C@@H]1Cc2c([nH]c3ccccc23)CN1; hArg = N=C(N)NCCCC[C@H](N)C(=O)O; Cit = NC(=O)NCCC[C@H](N)C(=O)O

biological target: Calcitonin gene-related peptide type 1 receptor (Homo sapiens) (UniProt Q16602); test: Agonist activity at human CGRP1 receptor in human SK-N-MC cells
Sequence (Q16602 whole entry, looked up): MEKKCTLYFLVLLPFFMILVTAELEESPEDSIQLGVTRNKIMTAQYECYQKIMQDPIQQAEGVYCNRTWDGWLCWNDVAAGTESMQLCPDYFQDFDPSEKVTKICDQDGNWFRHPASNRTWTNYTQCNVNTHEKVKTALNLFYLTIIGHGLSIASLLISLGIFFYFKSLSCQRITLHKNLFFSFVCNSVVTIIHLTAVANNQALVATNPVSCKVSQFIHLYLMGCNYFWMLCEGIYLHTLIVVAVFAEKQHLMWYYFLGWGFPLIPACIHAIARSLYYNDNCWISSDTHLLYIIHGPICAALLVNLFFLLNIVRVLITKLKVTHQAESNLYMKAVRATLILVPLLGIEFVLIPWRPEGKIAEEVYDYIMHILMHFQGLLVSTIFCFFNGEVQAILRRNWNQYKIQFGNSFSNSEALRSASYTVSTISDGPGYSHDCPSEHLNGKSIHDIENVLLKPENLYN

| Activity | Structure (SMILES) |
| --- | --- |
| inactive | CC(=O)N[C@@H](Cc1c[nH]c2ccccc12)C(=O)N[C@H](C(=O)N[C@H](C(=O)N[C@@H](Cc1cnc[nH]1)C(=O)N[C@@H](CCCNC(N)=O)C(=O)N[C@@H](CC(C)C)C(=O)N[C@@H](C)C(=O)NCC(=O)N[C@@H](CC(C)C)C(=O)N[C@@H](CC(C)C)C(=O)N[C@@H](CO)C(=O)N[C@@H](CCCNC(N)=O)C(=O)N[C@@H](CO)C(=O)NCC(=O)NCC(=O)N[C@H](C(=O)N[C@H](C(=O)N[C@@H](CCCCNC(=N)N)C(=O)N[C@@H](CCCCN)C(=O)N[C@@H](CC(N)=O)C(=O)N[C@@H](Cc1ccccc1)C(=O)N[C@H](C(=O)N1CCC[C@H]1C(=O)N[C@H](C(=O)N[C@@H](CC(=O)O)C(=O)N[C@H](C(=O)NCC(=O)N1CCC[C@@H]1C(=O)N[C@@H](Cc1ccccc1)C(=O)N[C@@H](C)C(=O)N[C@@H](Cc1ccccc1)C(N)=O)C(C)C)[C@@H](C)O)C(C)C)C(C)C)C(C)C)[C@@H](C)O)C(C)C |
| inactive | CC(=O)N[C@@H](Cc1c[nH]c2ccccc12)C(=O)N[C@H](C(=O)N[C@H](C(=O)N[C@@H](Cc1cnc[nH]1)C(=O)N[C@@H](CCCNC(N)=O)C(=O)N[C@@H](CC(C)C)C(=O)N[C@@H](C)C(=O)NCC(=O)N[C@@H](CC(C)C)C(=O)N[C@@H](CC(C)C)C(=O)N[C@@H](CO)C(=O)N[C@@H](CCCNC(N)=O)C(=O)N[C@@H](CO)C(=O)NCC(=O)NCC(=O)N[C@H](C(=O)N[C@H](C(=O)N[C@@H](CCCCNC(=N)N)C(=O)N[C@@H](CCCCN)C(=O)N[C@@H](CC(N)=O)C(=O)N[C@@H](Cc1ccccc1)C(=O)N[C@H](C(=O)N1CCC[C@H]1C(=O)N[C@H](C(=O)N[C@@H](CC(=O)O)C(=O)N[C@H](C(=O)NCC(=O)N(C)CC(=O)N[C@@H](Cc1ccccc1)C(=O)N[C@@H](C)C(=O)N[C@@H](Cc1ccccc1)C(N)=O)C(C)C)[C@@H](C)O)C(C)C)C(C)C)C(C)C)[C@@H](C)O)C(C)C |
| inactive | CC(=O)N[C@@H](Cc1c[nH]c2ccccc12)C(=O)N[C@H](C(=O)N[C@H](C(=O)N[C@@H](Cc1cnc[nH]1)C(=O)N[C@@H](CCCNC(N)=O)C(=O)N[C@@H](CC(C)C)C(=O)N[C@@H](C)C(=O)NCC(=O)N[C@@H](CC(C)C)C(=O)N[C@@H](CC(C)C)C(=O)N[C@@H](CO)C(=O)N[C@@H](CCCNC(N)=O)C(=O)N[C@@H](CO)C(=O)NCC(=O)NCC(=O)N[C@H](C(=O)N[C@H](C(=O)N[C@@H](CCCCNC(=N)N)C(=O)N[C@@H](CCCCN)C(=O)N[C@@H](CC(N)=O)C(=O)N[C@@H](Cc1ccccc1)C(=O)N[C@H](C(=O)N1CCC[C@H]1C(=O)N[C@H](C(=O)N[C@@H](CC(=O)O)C(=O)N[C@H](C(=O)NCC(=O)N1CCC[C@H]1C(=O)N1Cc2[nH]c3ccccc3c2C[C@H]1C(=O)N[C@@H](C)C(=O)N[C@@H](Cc1ccccc1)C(N)=O)C(C)C)[C@@H](C)O)C(C)C)C(C)C)C(C)C)[C@@H](C)O)C(C)C (Ac-WVTH[Cit]LAGLLS[Cit]SGGVV[hArg]KNFVPTDVGP[Tpi]AF-NH2) |
| inactive | CC(=O)N[C@@H](Cc1c[nH]c2ccccc12)C(=O)N[C@H](C(=O)N[C@H](C(=O)N[C@@H](Cc1cnc[nH]1)C(=O)N[C@@H](CCCNC(N)=O)C(=O)N[C@@H](CC(C)C)C(=O)N[C@@H](C)C(=O)NCC(=O)N[C@@H](CC(C)C)C(=O)N[C@@H](CC(C)C)C(=O)N[C@@H](CO)C(=O)N[C@@H](CCCNC(=N)N)C(=O)N[C@@H](CO)C(=O)NCC(=O)NCC(=O)N[C@H](C(=O)N[C@H](C(=O)N[C@@H](CCCNC(=N)N)C(=O)N[C@@H](CCCCN)C(=O)N[C@@H](CC(N)=O)C(=O)N[C@@H](Cc1ccccc1)C(=O)N[C@H](C(=O)N1CCC[C@H]1C(=O)N[C@H](C(=O)N[C@@H](CC(=O)O)C(=O)N[C@H](C(=O)NCC(=O)N1CCC[C@H]1C(=O)N[C@@H](Cc1ccccc1)C(=O)N[C@@H](C)C(=O)N[C@@H](Cc1ccccc1)C(N)=O)C(C)C)[C@@H](C)O)C(C)C)C(C)C)C(C)C)[C@@H](C)O)C(C)C |
| inactive | CC(=O)N[C@@H](Cc1c[nH]c2ccccc12)C(=O)N[C@H](C(=O)N[C@H](C(=O)N[C@@H](Cc1cnc[nH]1)C(=O)N[C@@H](CCCNC(N)=O)C(=O)N[C@@H](CC(C)C)C(=O)N[C@@H](C)C(=O)NCC(=O)N[C@@H](CC(C)C)C(=O)N[C@@H](CC(C)C)C(=O)N[C@@H](CO)C(=O)N[C@@H](CCCNC(N)=O)C(=O)N[C@@H](CO)C(=O)NCC(=O)NCC(=O)N[C@H](C(=O)N[C@H](C(=O)N[C@@H](CCCCNC(=N)N)C(=O)N[C@@H](CCCCN)C(=O)N[C@@H](CC(N)=O)C(=O)N[C@@H](Cc1ccccc1)C(=O)N[C@H](C(=O)N1CCC[C@H]1C(=O)N[C@H](C(=O)N[C@@H](CC(=O)O)C(=O)N[C@H](C(=O)NCC(=O)N1CCC[C@H]1CC(=O)N[C@@H](Cc1ccccc1)C(=O)N[C@@H](C)C(=O)N[C@@H](Cc1ccccc1)C(N)=O)C(C)C)[C@@H](C)O)C(C)C)C(C)C)C(C)C)[C@@H](C)O)C(C)C |

Further lines, the compound ahead of its results:

| Structure (SMILES) | Activity |
| --- | --- |
| CC(=O)N[C@@H](Cc1c[nH]c2ccccc12)C(=O)N[C@H](C(=O)N[C@H]1CCC(=O)NCCCC[C@@H](C(=O)NCC(=O)N[C@H]2CCC(=O)NCCCC[C@@H](C(=O)NCC(=O)NCC(=O)N[C@H](C(=O)N[C@H](C(=O)N[C@@H](CCCCNC(=N)N)C(=O)N[C@@H](CCCCN)C(=O)N[C@@H](CC(N)=O)C(=O)N[C@@H](Cc3ccccc3)C(=O)N[C@H](C(=O)N3CCC[C@H]3C(=O)N[C@H](C(=O)N[C@@H](CC(=O)O)C(=O)N[C@H](C(=O)NCC(=O)N3CCC[C@H]3C(=O)N[C@@H](Cc3ccccc3)C(=O)N[C@@H](C)C(=O)N[C@@H](Cc3ccccc3)C(N)=O)C(C)C)[C@@H](C)O)C(C)C)C(C)C)C(C)C)NC(=O)[C@H](CCCNC(=N)N)NC(=O)[C@H](CO)NC(=O)[C@H](CC(C)C)NC2=O)NC(=O)[C@H](CC(C)C)NC(=O)[C@H](CCCNC(=N)N)NC(=O)[C@H](Cc2cnc[nH]2)NC1=O)C(C)C | inactive |
| CC(=O)N[C@@H](Cc1c[nH]c2ccccc12)C(=O)N[C@H](C(=O)N[C@H](C(=O)N[C@@H](Cc1cnc[nH]1)C(=O)N[C@@H](CCCNC(N)=O)C(=O)N[C@@H](CC(C)C)C(=O)N[C@@H](C)C(=O)NCC(=O)N[C@@H](CC(C)C)C(=O)N[C@@H](CC(C)C)C(=O)N[C@@H](CO)C(=O)N[C@@H](CCCNC(N)=O)C(=O)N[C@@H](CO)C(=O)NCC(=O)NCC(=O)N[C@H](C(=O)N[C@H](C(=O)N[C@@H](CCCCNC(=N)N)C(=O)N[C@@H](CCCCN)C(=O)N[C@@H](CC(N)=O)C(=O)N[C@@H](Cc1ccccc1)C(=O)N[C@H](C(=O)N1C(C(=O)N[C@H](C(=O)N[C@@H](CC(=O)O)C(=O)N[C@H](C(=O)NCC(=O)N2C3CCCCC3C[C@H]2C(=O)N[C@@H](Cc2ccccc2)C(=O)N[C@@H](C)C(=O)N[C@@H](Cc2ccccc2)C(N)=O)C(C)C)[C@@H](C)O)CC2CCCCC21)C(C)C)C(C)C)C(C)C)[C@@H](C)O)C(C)C (stereo partly drawn) | inactive |
| CC(=O)N[C@@H](Cc1c[nH]c2ccccc12)C(=O)N[C@H](C(=O)N[C@H]1CCC(=O)NCCCC[C@@H](C(=O)NCC(=O)N[C@@H](CC(C)C)C(=O)N[C@@H](CC(C)C)C(=O)N[C@@H](CO)C(=O)N[C@@H](CCCNC(=N)N)C(=O)N[C@@H](CO)C(=O)NCC(=O)NCC(=O)N[C@H](C(=O)N[C@H](C(=O)N[C@@H](CCCNC(=N)N)C(=O)N[C@@H](CCCCN)C(=O)N[C@@H](CC(N)=O)C(=O)N[C@@H](Cc2ccccc2)C(=O)N[C@H](C(=O)N2CCC[C@H]2C(=O)N[C@H](C(=O)N[C@@H](CC(=O)O)C(=O)N[C@H](C(=O)NCC(=O)N2CCC[C@H]2C(=O)N[C@@H](Cc2ccccc2)C(=O)N[C@@H](C)C(=O)N[C@@H](Cc2ccccc2)C(N)=O)C(C)C)[C@@H](C)O)C(C)C)C(C)C)C(C)C)NC(=O)[C@H](CC(C)C)NC(=O)[C@H](CCCNC(=N)N)NC(=O)[C@H](Cc2cnc[nH]2)NC1=O)C(C)C | inactive |
